From article PMC13126677 (Journal of Medicinal Chemistry, 2026)
pEC50: −log10 of the molar value. Values after ≈ are worked out from the molar mass of the structure shown.

Columns and labels:
in vitro [1] = conditions: human, microsomes
Procedure: (§1) The DMPK properties data described in the manuscript were measured via a high-throughput platform by AstraZeneca (United Kingdom).

[2] = system: SVMP activity of Crotalus atrox venom; conditions: read-out: Inhibition of SVMP enzymatic activity EC50 CAT; C. atrox venom; mean of n ≥ 3, range in brackets
Procedure: (§2) Throughout our medicinal chemistry campaign, compounds were evaluated for their ability to inhibit enzymatic SVMP toxin activity in vitro using a previously described fluorescent-based substrate cleavage assay against five medically important viper venoms, namely Echis romani (Roman’s carpet viper, West Africa), Crotalus atrox (Western diamondback rattlesnake, North America), Calloselasma rhodostoma (Malayan pit viper, South East Asia), Bothrops jararaca (jararaca, South America) and Bitis arietans (puff adder, Africa).
(§3) Compounds of interest were stamped onto 384-well plates at a volume of 0.91 μL at a concentration of 1 mM in 100% DMSO (D2650, Sigma-Aldrich). Positive and negative control wells were stamped with 0.91 μL of 100% DMSO. To the test wells and the venom-only positive control wells, 15 μL of venom diluted to 0.066 μg/mL in PBS was added, giving a final amount of 1 μg/well. In the no venom negative control wells, 15 μL of PBS was added. The plates were then sealed, span briefly in a Platefuge (C2000, Benchmark Scientific) and incubated at 37 °C for 25 min to allow venom-inhibitor interaction. […] Dose response plates were conducted identically and the % inhibition values at each dose were used to draw EC50 curves to estimate the EC50 value of each compound tested. All SVMP experiments were repeated independently a minimum of three times.

[3] = system: SVMP activity of Bitis arietans venom; conditions: read-out: Inhibition of SVMP enzymatic activity EC50 BAR; B. arietans venom; mean of n ≥ 3, range in brackets
Procedure: as §2, §3

in vitro [4] = conditions: rat, hepatocytes
Procedure: as §1

[5] = system: SVMP activity of Echis romani venom; conditions: read-out: Inhibition of SVMP enzymatic activity EC50 ERO; E. romani venom; mean of n ≥ 3, range in brackets
Procedure: as §2, §3

physchem [6] = conditions: organic solvent / aqueous solvent at pH 7.4, pH 7.4
Procedure: as §1

physchem [7] = conditions: aqueous medium at pH 7.4, pH 7.4, aqueous buffer
Procedure: as §1

[8] = system: SVMP activity of Bothrops jararaca venom; conditions: read-out: Inhibition of SVMP enzymatic activity EC50 BJA; B. jararaca venom; mean of n ≥ 3, range in brackets
Procedure: as §2, §3

[9] = system: SVMP activity of Calloselasma rhodostoma venom; conditions: read-out: Inhibition of SVMP enzymatic activity EC50 CRH; C. rhodostoma venom; mean of n ≥ 3, range in brackets
Procedure: as §2, §3

[10] = system: procoagulant activity of E. romani venom; conditions: read-out: Coagulation assay EC50 E. romani; 10 ng E. romani venom, citrated bovine plasma; mean of n ≥ 3, range in brackets
Procedure: (§4) This assay consists of preincubating venom (or venom vehicle control) at a species-specific dose with the compound of interest (or compound vehicle control), then adding citrated bovine plasma to the wells and activating the clotting cascade with calcium chloride. […] Compounds of interest were stamped onto 384-well plates at a volume of 0.5 μL and a concentration of 10 mM in 100% DMSO. Positive and negative control wells were stamped with 0.5 μL of 100% DMSO. To the test wells and the venom-only positive control wells, 10 μL of venom diluted to 1 μg/mL (E. romani) or 10 μg/mL (B. jararaca) in PBS was added, giving a final well amount of 10 ng (E. romani) or 100 ng (B. jararaca) per well. In the no venom negative control wells, 10 μL of PBS was added. The plates were then sealed, span briefly in a Platefuge and incubated at 37 °C for 25 min to allow venom-inhibitor interaction. While the plates were incubating, sufficient citrated bovine plasma (S0260, BioWest) to allow 20 μL/well was centrifuged at 3120 RCF for 5 min to remove any residual cellular debris and the supernatant was collected. The 384-well plates were removed from the incubator for 5 min to allow acclimation to room temperature, then 20 μL/well of 20 mM CaCl2 was added and immediately followed by the addition of 20 μL/well of centrifuged citrated bovine plasma, both via a Multidrop Combi reagent dispenser (5840330, Thermo Fisher Scientific). The plates were then read kinetically using an absorbance protocol on a CLARIOStar microplate reader at 595 nm for 60 min. […] Dose response plates were conducted identically and the % inhibition values at each dose were used to draw EC50 curves to estimate the EC50 value of each compound tested. All coagulation experiments were repeated independently a minimum of three times.

[11] = system: procoagulant activity of B. jararaca venom; conditions: read-out: Coagulation assay EC50 B. jararaca; 100 ng B. jararaca venom, citrated bovine plasma; mean of n ≥ 3, range in brackets
Procedure: as §4

[12] = system: procoagulant venom activity (E. romani and B. jararaca); conditions: in words; coagulation assay
Procedure: as §4

[13] = system: E. romani P–I and P–III SVMPs; conditions: drug 2 μM, gel
Procedure: (§5) Evaluation of SVMP toxin activity of human prothrombin and fibrinogen and inhibition by test compounds was performed by SDS-PAGE degradation gel electrophoresis using venom-purified toxins. P–I, P–II and P–III SVMPs were isolated using an adaptation of the method of Howes et al. Whole E. romani venom (15 mg) was initially separated using size exclusion chromatography (SEC) on a 120 mL column of Superdex 75 (Cytiva). The P–II SVMP (22 kDa) was pure and ready to use at this stage. P–I and P–III SVMP containing peaks were separately applied to a 1 mL high resolution hydrophobic interaction chromatography (HIC) column (SOURCE 15PHE, Cytiva). […] The P–I eluted as two peaks of proteins with identical molecular weight (21 kDa) which were combined back together. The P–III-containing fraction from SEC eluted from HIC as multiple peaks of P–III SVMP isoforms, well separated from the earlier eluting L-amino acid oxidase and high molecular weight C-type lectin-like proteins. The proteins in the PIII-containing peaks were pooled back together.
Prothrombin degradation was measured by incubating 2 μg of human prothrombin (Hematologic Technologies INC) in the presence or absence of drug and the P–I, P–II, and P–III SVMPs. […] Briefly, drug or DMSO and 200 ng of purified SVMP isoform were incubated for 30 min at 37 °C in a water bath, after which 2 μg of human prothrombin were added and the samples incubated for another hour at 37 °C. Drug concentrations used were 2 μM for P–I and P–III SVMPs. Samples were then processed for loading onto a 4–20% SDS-PAGE gel (Biorad) and were run under reducing conditions for 45 min at 180 V. The gels were stained with Coomassie Brilliant Blue R250 and degradation profiles were visualized and images captured using a GelDoc (Biorad).

[14] = system: E. romani P–I, P–II and P–III SVMPs; conditions: gel; for protection against degradation of fibrinogen: P–I, P–II, P–III SVMPs, drug 10 μM (P–I, P–II), 400 nM (P–III)
Procedure: as §5
Degradation of human fibrinogen was measured in a similar manner. Human fibrinogen (Merck) was added at 5 μg/reaction and incubated with the different SVMP isoforms in the presence or absence of drugs. Drug concentrations used were 10 μM for P–I and P–II SVMP and 400 nM for P–III SVMP. The reactions consisted of 200 ng SVMP isoform and the appropriate concentration of drug, which were then incubated for 30 min at 37 °C in a water bath. Five micrograms of fibrinogen were then added and the samples incubated for another hour at 37 °C, before separation by SDS-PAGE as described above.

[15] = system: E. romani venom in human whole blood; conditions: venom 60 ng plus drug 5 μM
Procedure: We measured the coagulation profile of whole human blood using thromboelastography, and compared with venom stimulated, and venom and drug stimulated, clotting profiles. […] Blood samples were collected in ACD-A blood tubes. Using a ROTEM delta (Werfen) a final volume of 300 μL blood per reaction was pipetted into prewarmed cups (37 °C), with four channels per run. Whole blood was warmed for 5 min at 37 °C, during which time 12 μL of E. romani venom (5 ng/nL concentration, 60 ng dose), 15 μL of DMSO vehicle or test compounds (5 μM final concentration, 0.2% DMSO), and 20 μL of Startem reagent (CaCl2, Werfen) was prepared. The maximum incubation time of venom and inhibitors was 2 min, before 253 μL of whole blood were added and mixed before reading on the ROTEM delta. The commonly used parameters of clotting time and maximum clot firmness (MCF) were reported, from a minimum of three independent measurements per experimental group.

E. romani venom = conditions: venom 10 μg/egg, drug 1 μg/egg; 1 h postvenom images; in words
Procedure: Fertile hens eggs were supplied on day 1 post fertilization from UK supplier MedEggs Ltd. Eggs were immediately placed horizontally to incubate at 37 °C until day 5 of development. Candling was conducted to mark the position of the embryo to guide windowing. Any infertile eggs were removed at this stage. To access the embryos, all fertile eggs were then windowed under laminar flow. In brief, 6–8 mL of albumin was removed using a 23G needle. The area marking the position of the embryo was then covered with medical tape, and a dish of shell removed using sharp dissection scissors. The exposed embryo was then covered using parafilm and the egg returned to the incubator overnight. Surviving embryos were then randomly allocated into groups of n = 5. […] Treatments were given in a total volume of 10 μL, administered directly onto (i.e., topically) the vitelline vein. Embryos were returned to the incubator immediately following dosing, and then observed at 1, 2, 4, and 6 h. Survival was monitored via the observation of a heartbeat. Venom pathology was captured using a Motic SMZ 171-TLED microscope system. In brief, at each observation time point (1, 2, 4, and 6 h post envenoming) images were captured using a Moticam X5 Wi-Fi camera. To track changes across the experimental time course, the imaging position was kept consistent at each time point for individual embryos.

Procedure for human plasma protein: as §1

| Compound | microsomal CLint (in vitro [1]) | pEC50 [2] | pEC50 [3] | hepatocyte CLint (in vitro [4]) | Human Protein binding (%free) (human plasma protein) | pEC50 [5] | logD (physchem [6]) | solubility (physchem [7]) | pEC50 [8] | pEC50 [9] | pEC50 [10] | pEC50 [11] | inhibition of procoagulant venom activity [12] | protection against prothrombin degradation [13] | protection against degradation of fibrinogen [14] | protection against fibrinogen degradation by P–II SVMP ([14]; P–II SVMP, drug 10 μM) | reduction of venom-induced MCF [15] | effect on clotting time ([15]; in words) | venom-induced hemorrhage in embryos (E. romani venom) |
| --- | --- | --- | --- | --- | --- | --- | --- | --- | --- | --- | --- | --- | --- | --- | --- | --- | --- | --- | --- |
| COCCN1CCN(S(=O)(=O)c2ccc(Oc3ccc(Cl)cc3)cc2)[C@@H](C(=O)NO)C1 [compound 15, (R)-1-((4-(4-Chlorophenoxy)phenyl)sulfonyl)-N-hydroxy-4-(2-methoxyethyl)piperazine-2-carboxamide] | < 3 µL/min/mg | 7.32 | 7.70 | > 300 µL/min/1e6 cells | 2.3 %free | 8.10 | 2.4 | 431 µM (≈ 203 µg/mL) | 6.63 | 7.65 |  |  |  |  |  |  |  |  |  |
| COCCN1CCN(S(=O)(=O)c2ccc(Oc3ccc(C(F)(F)F)cc3)cc2)[C@@H](C(=O)NO)C1 [compound 28, (R)-N-Hydroxy-4-(2-methoxyethyl)-1-((4-(4-(trifluoromethyl)phenoxy)phenyl)sulfonyl)piperazine-2-carboxamide] | 8.6 µL/min/mg | 7.16 | 7.40 | 22.8 µL/min/1e6 cells | 3.4 %free | 8.12 | 2.7 | 320 µM (≈ 161 µg/mL) | 5.82 | 7.02 |  |  |  |  |  |  |  |  |  |
| COc1ccc(S(=O)(=O)N2CCN(S(=O)(=O)c3ccc(OC)cc3)[C@@H](C(=O)NO)C2)cc1 [compound 21, (R)-N-Hydroxy-1,4-bis((4-methoxyphenyl)sulfonyl)piperazine-2-carboxamide] | 10.2 µL/min/mg | 7.49 | 7.97 | 199 µL/min/1e6 cells | 30 %free | 7.82 | 1 | 25 µM (≈ 12.1 µg/mL) | 7.74 | 7.23 | 5.34 | 5.41 |  |  |  |  |  |  |  |
| COc1ccc(S(=O)(=O)N2CCN(S(C)(=O)=O)C[C@@H]2C(=O)NO)cc1 [compound 19, (R)-N-Hydroxy-1-((4-methoxyphenyl)sulfonyl)-4-(methylsulfonyl)piperazine-2-carboxamide] | < 3 µL/min/mg | 7.34 | 7.84 | 8.9 µL/min/1e6 cells | 88 %free | 7.96 | -0.3 | < 1000 µM | 7.70 | 7.20 | 6.30 | 6.29 |  |  |  |  |  |  |  |
| COCCN1CCN(S(=O)(=O)c2ccc(-c3ccc(Cl)cc3)cc2)[C@@H](C(=O)NO)C1 [compound 29, (R)-1-((4′-Chloro-[1,1′-biphenyl]-4-yl)sulfonyl)-N-hydroxy-4-(2-methoxyethyl)piperazine-2-carboxamide] | 5.1 µL/min/mg | 7.28 | 8.46 | 21.1 µL/min/1e6 cells | 5.2 %free | 7.79 | 2.5 | 310 µM (≈ 141 µg/mL) | 7.41 | 6.66 | < 5.00 | < 5.00 | inactive |  |  |  |  |  |  |
| COc1ccc(S(=O)(=O)N2CCNC[C@@H]2C(=O)NO)cc1.Cl [compound 18, (R)-N-Hydroxy-1-((4-methoxyphenyl)sulfonyl)piperazine-2-carboxamide hydrochloride salt] | < 3 µL/min/mg | 7.16 | 7.61 | 6.3 µL/min/1e6 cells | 91 %free | 7.32 | -0.2 | 231 µM | 7.25 | 7.08 |  |  |  |  |  |  |  |  |  |
| COCCN1CCN(S(=O)(=O)c2ccc(Oc3ccc(OC(F)(F)F)cc3)cc2)[C@@H](C(=O)NO)C1 [compound 16, (R)-N-Hydroxy-4-(2-methoxyethyl)-1-((4-(4-(trifluoromethoxy)phenoxy)phenyl)sulfonyl)piperazine-2-carboxamide] | 8 µL/min/mg | 7.11 | 7.56 | 65.6 µL/min/1e6 cells | 3.0 %free | 7.80 | 2.9 | 437 µM (≈ 227 µg/mL) | 6.07 | 7.10 |  |  |  |  |  |  |  |  |  |
| COCCN1CCN(S(=O)(=O)c2ccc(Oc3ccc(OC)cc3)cc2)[C@@H](C(=O)NO)C1 [compound 17, (R)-N-Hydroxy-4-(2-methoxyethyl)-1-((4-(4-methoxyphenoxy)phenyl)sulfonyl)piperazine-2-carboxamide] | > 300 µL/min/mg | 7.51 | 7.98 | 209 µL/min/1e6 cells | 6.4 %free | 8.96 | 1.9 | 236 µM (≈ 110 µg/mL) | 6.68 | 7.92 |  |  |  |  |  |  |  |  |  |
| CC1(C)SCCN(S(=O)(=O)c2ccc(Oc3ccncc3)cc2)[C@H]1C(=O)NO [Prinomastat, prinomastat, reference compound] |  |  |  |  |  |  |  |  |  |  | 6.25 | 6.01 | demonstrated inhibition of procoagulant activity | almost full protection | protected against the degradation of fibrinogen |  |  |  |  |
| COCCN1CCN(S(=O)(=O)c2ccc(-c3ccc(F)cc3)cc2)[C@@H](C(=O)NO)C1 [compound 30, (R)-1-((4′-Fluoro-[1,1′-biphenyl]-4-yl)sulfonyl)-N-hydroxy-4-(2-methoxyethyl)piperazine-2-carboxamide] | 7.1 µL/min/mg | 7.73 | 8.74 | > 300 µL/min/1e6 cells | 14.0 %free | 7.73 | 1.9 | 468 µM (≈ 205 µg/mL) | 7.57 | 6.90 | < 5.00 | < 5.00 | inactive |  |  |  |  |  |  |
| COCCOC(=O)N1CCN(S(=O)(=O)c2cc(F)c(Oc3ccc(Cl)cc3)c(F)c2)[C@@H](C(=O)NO)C1 [XL-784, reference compound] | 100 µL/min/mg | 7.30 | 7.89 | 67.3 µL/min/1e6 cells | 0.3 %free | 8.01 | 3.2 | 316 µM (≈ 174 µg/mL) | 7.19 | 7.03 | < 5.00 | < 5.00 | inactive | unable to protect against prothrombin degradation | protected against the degradation of fibrinogen | inferior against P–II SVMP activity | 28.9% | no effect on clotting time | no evidence of hemorrhage |
| COc1ccc(S(=O)(=O)N2CCN(S(=O)(=O)c3c(C)noc3C)C[C@@H]2C(=O)NO)cc1 [compound 22, (R)-4-((3,5-Dimethylisoxazol-4-yl)sulfonyl)-N-hydroxy-1-((4-methoxyphenyl)sulfonyl)piperazine-2-carboxamide] | 17.5 µL/min/mg | 7.46 | 8.01 | 44 µL/min/1e6 cells | 51 %free | 7.97 | 0.7 | > 1000 µM | 7.75 | 7.27 | 5.31 | 5.96 |  |  |  |  |  |  |  |
| COCCN1CCN(S(=O)(=O)c2ccc(OC)cc2)[C@@H](C(=O)NO)C1 [compound 20, (R)-N-Hydroxy-4-(2-methoxyethyl)-1-((4-methoxyphenyl)sulfonyl)piperazine-2-carboxamide] | < 3 µL/min/mg | 7.16 | 7.95 | 57.1 µL/min/1e6 cells | 82 %free | 7.21 | 0.1 | > 1000 µM | 7.06 | 6.86 | < 5.00 | < 5.00 | inactive |  |  |  |  |  |  |
